In patent publication US9499550B2 (BRISTOL-MYERS SQUIBB COMPANY, priority 2012, dated 2016):
Read-outs that look alike come from different tables or passages of the source.

Key:
[1] = system: HCV genotype 1a (H77 strain) replicon in HUH-7 cells; assay: HCV replicon luciferase reporter assay, genotype 1a; assay type: cell-based; conditions: Hepatitis C virus, Huh-7, 72 h, 3 days incubation, read-out: LE_1a (EC50, range)
Outline: (§1)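 Replicon inhibition for both genotypes was measured as Renilla luciferase signal (EnduRen, 7.5 μM final, 2 h) after 3-day, 37° C exposure of replicon-bearing HUH-7 cells in 4% FCS DMEM, 0.5% DMSO. The 1b construct carries S1179I; the 1a H77 construct carries P1496L and S2204I. Twenty-point, 3-fold dilutions were fitted four-parametrically for EC50, and CC50 was taken from multiplexed Cell Titer-Blue.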

[2] = system: HCV genotype 1b (Con1) replicon in HUH-7 cells; assay: HCV replicon luciferase reporter assay, genotype 1b; assay type: cell-based; conditions: Hepatitis C virus, Huh-7, 72 h, 3 days incubation, read-out: LE_1b (EC50, range)
Outline: as §1

[3] = HCV genotype 1a replicon luciferase assay, range class
[4] = HCV genotype 1b replicon luciferase assay, range class
[5] = HCV genotype 1a replicon luciferase
[6] = HCV genotype 1b replicon luciferase

| SMILES | EC50 [1, 3] [nM] | EC50 [2, 4] [nM] | EC50 [1, 5] [nM] | EC50 [2, 6] [nM] | other results |
| --- | --- | --- | --- | --- | --- |
| CC[C@@H]1C[C@@H](C)CC/C=C\[C@@H]2C[C@@]2(C(=O)NS(=O)(=O)C2CC2)NC(=O)[C@@H]2C[C@@H](Oc3nccc4c(OC)cccc34)CN2C(=O)[C@H]1NC(=O)NC(C)(C)C [Compound 3029, (2R,6S,7R,9S,13aS,14aR,16aS,Z)-6-(3-(tert-butyl)ureido)-N-(cyclopropylsulfonyl)-7-ethyl-2-((5-methoxyisoquinolin-1-yl)oxy)-9-methyl-5,16-dioxo-1,2,3,5,6,7,8,9,10,11,13a,14,14a,15,16,16a-hexadecahydrocyclopropa[e]pyrrolo[1,2-a][1,4]diazacyclopentadecine-14a-carboxamide] | 4.82 to 103 | 4.82 to 103 | – | – | – |
| COc1ccc2c(O[C@@H]3C[C@H]4C(=O)N[C@]5(C(=O)NS(=O)(=O)C6CC6)C[C@H]5/C=C\CC[C@H](C)C[C@@H](C)[C@H](NC(=O)OC(C)(C)C)C(=O)N4C3)nc(-c3ccc(N4CCOCC4)cc3)cc2c1 [Compound 5192, tert-butyl ((2R,6S,7R,9S,13aS,14aR,16aS,Z)-14a-((cyclopropylsulfonyl)carbamoyl)-2-((6-methoxy-3-(4-morpholinophenyl)isoquinolin-1-yl)oxy)-7,9-dimethyl-5,16-dioxo-1,2,3,5,6,7,8,9,10,11,13a,14,14a,15,16,16a-hexadecahydrocyclopropa[e]pyrrolo[1,2-a][1,4]diazacyclopentadecin-6-yl)carbamate] | – | – | < 5.46 | < 5.46 | – |
| CCOc1ccc2ncc(O[C@@H]3C[C@H]4C(=O)N[C@]5(C(=O)NS(=O)(=O)C6(C)CC6)C[C@H]5/C=C\CC[C@@H](C)C[C@@H](C)[C@H](NC(=O)OC(C)(C)C(F)(F)F)C(=O)N4C3)cc2c1 [Compound 4313] | – | – | – | – | EC50 ([1]; GETYPE1A, HCV genotype 1a replicon luciferase): 0.51 to 1 nM; EC50 ([2]; GETYPE1B, HCV genotype 1b replicon luciferase): 0.1 to 0.5 nM |
| C[C@H]1CC/C=C\[C@@H]2C[C@@]2(C(=O)NS(=O)(=O)C2CC2)NC(=O)[C@@H]2C[C@@H](Oc3nccc4c5c(ccc34)N(C)CCO5)CN2C(=O)[C@@H](NC(=O)O[C@@H]2C[C@@H]3C[C@@H]3C2)[C@H](C)C1 [Compound 5291, (1R,3r,5 S)-bicyclo[3.1.0]hexan-3-yl((2R,6S,7R,9S,13aS,14aR,16aS,Z)-14a-((cyclopropylsulfonyl)carbamoyl)-7,9-dimethyl-2-((4-methyl-3,4-dihydro-2H-[1,4]oxazino[2,3-f]isoquinolin-7-yl)oxy)-5,16-dioxo-1,2,3,5,6,7,8,9,10,11,13a,14,14a,15,16,16a-hexadecahydrocyclopropa[e]pyrrolo[1,2-a][1,4]diazacyclopentadecin-6-yl)carbamate] | – | – | < 5.46 | < 5.46 | – |
| COc1ccc2c(O[C@@H]3C[C@H]4C(=O)N[C@]5(C(=O)NS(=O)(=O)C6CC6)C[C@H]5/C=C\CC[C@@H](C)C[C@@H](C)[C@H](NC(=O)OC(C)(C)C(C)(F)F)C(=O)N4C3)nc(N(C)C)cc2c1 [Compound 3132, 3,3-difluoro-2-methylbutan-2-yl((2R,6S,7R,9R,13aS,14aR,16aS,Z)-14a-((cyclopropylsulfonyl)carbamoyl)-2-((3-(dimethylamino)-6-methoxyisoquinolin-1-yl)oxy)-7,9-dimethyl-5,16-dioxo-1,2,3,5,6,7,8,9,10,11,13a,14,14a,15,16,16a-hexadecahydrocyclopropa[e]pyrrolo[1,2-a][1,4]diazacyclopentadecin-6-yl)carbamate] | < 5.46 | < 5.46 | – | – | – |
| COc1ccc2c(O[C@@H]3C[C@H]4C(=O)N[C@]5(C(=O)NS(=O)(=O)C6(C)CC6)C[C@H]5/C=C\CC[C@H](C)C[C@@H](C)[C@H](NC(=O)OC(C)(C)C(C)(F)F)C(=O)N4C3)nc(-c3ccc(OC(C)C)cc3)c(OC)c2c1 [Compound 5345, 3,3-difluoro-2-methylbutan-2-yl((2R,6S,7R,9S,13aS,14aR,16aS,Z)-2-((3-(4-isopropoxyphenyl)-4,6-dimethoxyisoquinolin-1-yl)oxy)-7,9-dimethyl-14a-(((1-methylcyclopropyl)sulfonyl)carbamoyl)-5,16-dioxo-1,2,3,5,6,7,8,9,10,11,13a,14,14a,15,16,16a-hexadecahydrocyclopropa[e]pyrrolo[1,2-a][1,4]diazacyclopentadecin-6-yl)carbamate] | – | – | 4.82 to 103 | < 5.46 | – |
